Broadly, the MIC50 is the lowest concentration that inhibits either 50% of growth or 50% of the strains tested, depending on the study. By MIC90 is commonly meant the lowest concentration that inhibits either 90% of growth or 90% of the strains tested, depending on the study. Broadly, the MIC is the least concentration at which growth counts as inhibited.

The structures appear in SMILES notation. Values after ≈ are worked out from the molar mass of the structure shown.

The values below come from patent EP0554004A2, “Cephem compounds and antibacterial agents” (KATAYAMA SEIYAKUSYO CO. Ltd., priority 1992, dated 1993).

In assay [1] the test system is clinically isolated MRSA. In words: Antibacterial potency against clinically isolated MRSA (Test Example 4). It is filed as cell-based, methicillin-resistant Staphylococcus aureus. To be noted: Staphylococcus aureus, 52 strains of clinically isolated MRSA. The method, then: (§1) 52 strains of clinically isolated MRSA were used, and MIC was determined for each of the strains according to the standard method of the Japan Chemotherapical Society as in Test Example 1. The minimum growth inhibitory concentration which inhibited growth of 50% of the strains tested was expressed as MIC50 (µg/ml), and the minimum growth inhibitory concentration which inhibited growth of 90% of the strains was expressed as MIC90 (µg/ml).
MIC 50 and MIC 90 were determined for each of the 52 strains of clinically isolated MRSA according to the same method as used in Test Example 2.
VCM (vancomycin) was used as control agent.

The test system of assay [2] is P. aeruginosa NCTC10490. In words: MIC against standard strains (Test Example 3). Format: cell-based. The settings on record: Pseudomonas aeruginosa; P. aeruginosa NCTC10490 (Test Example 3); read-out: MIC. As for the experimental part:
(§2) By using each test strain cultured overnight at 37°C in a Muller-Hinton broth, there was prepared a bacterial solution with a bacterial cell population of 1 x 10^6 CFU/mi of the same bouillon. The bacterial solution was inoculated into the Muller-Hinton agar media each containing respectively one test agent and, after overnight incubation at 37°C, the minimum concentration that inhibited growth of the bacteria was determined and shown as MIC also in Table 1.
(§3) The minimum growth inhibitory concentration was determined for each of the 21 standard strains shown in Table 3, according to the same method as used in Test Example 1.
(§4) In the test, FMOX (flomoxef), CTM (cefotiam) and CEZ (cefazolin) were used as control agents.

In assay [3] the test system is E. cloacae ATCC13407. In words: MIC against standard strains (Test Example 3). Format: cell-based. To be noted: Enterobacter cloacae; E. cloacae ATCC13407 (Test Example 3); read-out: MIC. The method, then:
as §2, §3, §4

Assay [4] deals with S. aureus 195. In words: MIC against standard strains (Test Example 3). It is filed as cell-based. The settings on record: Staphylococcus aureus; S. aureus 195 (MRSA) (Test Example 3); read-out: MIC. As for the experimental part: as §2, §3, §4
For assay [5], the system named is S. aureus 167. Nature of the assay: MIC against standard strains (Test Example 3). Format: cell-based. To be noted: Staphylococcus aureus; S. aureus 167 (MRSA) (Test Example 3); read-out: MIC. The method, then: as §2, §3, §4
Assay [6] deals with S. aureus 209p JC-1. In words: MIC against standard strains (Test Example 3). It is filed as cell-based. To be noted: Staphylococcus aureus; S. aureus 209p JC-1 (Test Example 3); read-out: MIC. As for the experimental part: as §2, §3, §4
Assay [7] concerns S. epidemidis IAM1296. Nature of the assay: MIC against standard strains (Test Example 3). Format: cell-based. The settings on record: S. epidemidis IAM1296 (Test Example 3); read-out: MIC. The method, then: as §2, §3, §4
Assay [8] relates to E. coli CSH2 (RK1). In words: MIC against standard strains (Test Example 3). It is filed as cell-based. To be noted: Escherichia coli. The method, then:
as §2, §3, §4

In assay [9] the test system is A. calcoaceticos T59. In words: MIC against standard strains (Test Example 3). The settings on record: A. calcoaceticos T59 (Test Example 3); read-out: MIC. Format: cell-based. As for the experimental part: as §2, §3, §4
Assay [10] deals with S. aureus Smith. In words: MIC against standard strains (Test Example 3). Format: cell-based. The settings on record: Staphylococcus aureus; S. aureus Smith (Test Example 3); read-out: MIC. As for the experimental part: as §2, §3, §4
Assay [11] concerns P. vulugaris OX-19. In words: MIC against standard strains (Test Example 3). The settings on record: P. vulugaris OX-19 (Test Example 3); read-out: MIC. Format: cell-based. The method, then:
as §2, §3, §4

Assay [12] deals with E. coli CSH2 (RE45). In words: MIC against standard strains (Test Example 3). It is filed as cell-based. To be noted: Escherichia coli. The method, then:
as §2, §3, §4

Assay [13] relates to S. marcescens IAM1184. In words: MIC against standard strains (Test Example 3). To be noted: Serratia marcescens; S. marcescens IAM1184 (Test Example 3); read-out: MIC. Format: cell-based. As for the experimental part: as §2, §3, §4
The test system of assay [14] is E. coli NIHJ JC-2. Nature of the assay: MIC against standard strains (Test Example 3). Format: cell-based. The settings on record: Escherichia coli, NIHJJC2; E. coli NIHJ JC-2 (Test Example 3); read-out: MIC. The method, then:
as §2, §3, §4

The test system of assay [15] is M. Morganii IFO3848. Nature of the assay: MIC against standard strains (Test Example 3). Format: cell-based. The settings on record: Morganella morganii; M. Morganii IFO3848 (Test Example 3); read-out: MIC. As for the experimental part: as §2, §3, §4
Assay [16] relates to C. freundii ATCC8090. Nature of the assay: MIC against standard strains (Test Example 3). It is filed as cell-based. The settings on record: Citrobacter freundii; C. freundii ATCC8090 (Test Example 3); read-out: MIC. The method, then:
as §2, §3, §4

Assay [17] relates to A. faecalis ATCC3750. In words: MIC against standard strains (Test Example 3). It is filed as cell-based. The settings on record: Alcaligenes faecalis; A. faecalis ATCC3750 (Test Example 3); read-out: MIC. The method, then:
as §2, §3, §4

In assay [18] the test system is K. pneumoniae IFO3317. In words: MIC against standard strains (Test Example 3). Format: cell-based. The settings on record: Klebsiella pneumoniae; K. pneumoniae IFO3317 (Test Example 3); read-out: MIC. As for the experimental part: as §2, §3, §4
The test system of assay [19] is K. pneumoniae No. 42. In words: MIC against standard strains (Test Example 3). Format: cell-based. The settings on record: Klebsiella pneumoniae; K. pneumoniae No. 42 (Test Example 3); read-out: MIC. The method, then:
as §2, §3, §4

The subject of assay [20] is B. subtilis ATCC6633. Nature of the assay: MIC against standard strains (Test Example 3). Format: cell-based. The settings on record: Bacillus subtilis; B. subtilis ATCC6633 (Test Example 3); read-out: MIC. The method, then:
as §2, §3, §4

Assay [21] deals with M. luteus ATCC 9341. In words: MIC against standard strains (Test Example 3). Format: cell-based. The settings on record: Micrococcus luteus, ATCC9341; M. luteus ATCC 9341 (Test Example 3); read-out: MIC. The method, then:
as §2, §3, §4

In assay [22] the test system is P. mirabilis IFO3849. Nature of the assay: MIC against standard strains (Test Example 3). The settings on record: Proteus mirabilis; P. mirabilis IFO3849 (Test Example 3); read-out: MIC. Format: cell-based. As for the experimental part: as §2, §3, §4
Assay [23] concerns clinically isolated MRSA. In words: Antibacterial potency against clinically isolated MRSA (Test Example 2). To be noted: Staphylococcus aureus, 52 strains of clinically isolated MRSA; for MIC50: concentration inhibiting growth of 50% of the strains (Test Example 2); for MIC90: concentration inhibiting growth of 90% of the strains (Test Example 2). Format: cell-based, methicillin-resistant Staphylococcus aureus. As for the experimental part:
A test on the antibacterial potency against clinically isolated MRSA was conducted in the following way.
as §1
In this test, FMOX (flomoxef), IPM/CS (imipenem/cilastatin), CMZ (cefmetazole), MINO (minocycline) and DMPPC (methicillin) were used as control agents.

For `NC(=O)Cc1ccc[n+](CC2=C(C(=O)[O-])N3C(=O)[C@@H](NC(=O)/C(=N\O)c4csc(N)n4)[C@H]3SC2)c1` [Compound (7), 7β-[2-(2-aminothiazol-4-yl)-2-syn-hydroxyiminoacetamido]-3-[(3-carbamoylmethyl-1-pyridinio)methyl]-3-cephem-4-carboxylic acid chloride], the MIC50 in [1] (concentration inhibiting growth of 50% of the strains (Test Example 4), read-out: MIC50) stood at 2.04 µg/mL. The MIC90 in assay [1] (concentration inhibiting growth of 90% of the strains (Test Example 4), read-out: MIC90) amounted to 5.44 µg/mL. Moreover, the minimum inhibitory concentration (MIC) in assay [2] turned out to be 1.56 µg/mL; in [3] it was 0.39 µg/mL; in assay [4], 3.13 µg/mL; in [5], 12.5 µg/mL; in assay [6], 0.2 µg/mL; in assay [7], 0.1 µg/mL. Further, the MIC in assay [8] was 0.78 µg/mL; in [9] it was 3.13 µg/mL; in assay [10], 0.39 µg/mL; in assay [11], 0.39 µg/mL; in assay [12] it was 0.2 µg/mL; in assay [13], 0.2 µg/mL. Besides, the minimum inhibitory concentration (MIC) in assay [14] was 0.2 µg/mL; in [15] it was 0.1 µg/mL; in assay [16], 0.2 µg/mL; in [17], 1.56 µg/mL; in [18] it was 0.2 µg/mL; in assay [19], 0.39 µg/mL. The minimum inhibitory concentration (MIC) worked out at 0.39 µg/mL in assay [20], 0.1 µg/mL in [21] and 0.2 µg/mL in [22].
On to `CN(C)c1ccc(O)c2c1C[C@H]1C[C@H]3[C@H](N(C)C)C(O)=C(C(N)=O)C(=O)[C@@]3(O)C(O)=C1C2=O` [MINO, minocycline, reference compound], for which, in assay [23], the MIC50 was determined as 0.2 µg/mL (≈ 0.437 µM) and the MIC90 turned out to be 1.5 µg/mL (≈ 3.28 µM).
As to `Cc1nnc(SCC2=C(C(=O)O)N3C(=O)[C@@H](NC(=O)Cn4cnnn4)[C@H]3SC2)s1` [CEZ, cefazolin, reference compound], the MIC in [2] was > 100 µg/mL; in assay [3], > 100 µg/mL; in [4], 50 µg/mL (≈ 110 µM); in assay [5], 100 µg/mL (≈ 220 µM); in assay [6] it was 0.2 µg/mL (≈ 0.44 µM); in assay [7], 0.1 µg/mL (≈ 0.22 µM). In addition, the MIC in [8] is 3.13 µg/mL (≈ 6.89 µM); in [9] it was > 100 µg/mL; in [10], 0.2 µg/mL (≈ 0.44 µM); in [11], 12.5 µg/mL (≈ 27.5 µM); in assay [12], 1.56 µg/mL (≈ 3.43 µM); in assay [13], > 100 µg/mL. Further, the MIC in assay [14] turned out to be 1.56 µg/mL (≈ 3.43 µM); in assay [15], 25 µg/mL (≈ 55 µM); in assay [16], 3.13 µg/mL (≈ 6.89 µM); in assay [17], 12.5 µg/mL (≈ 27.6 µM); in [18], 0.78 µg/mL (≈ 1.72 µM); in [19], 3.13 µg/mL (≈ 6.89 µM). For the same molecule, the MIC amounted to 0.2 µg/mL (≈ 0.44 µM) in assay [20], 0.78 µg/mL (≈ 1.72 µM) in assay [21] and 6.25 µg/mL (≈ 13.8 µM) in [22].
As to `CO[C@@]1(NC(=O)CSCC#N)C(=O)N2C(C(=O)O)=C(CSc3nnnn3C)CS[C@@H]21` [CMZ, cefmetazole, reference compound], in assay [23], the MIC50 came to 16.8 µg/mL (≈ 35.6 µM) and the MIC90 came to 49.8 µg/mL (≈ 106 µM).
